pKi: −log10 of the molar value.

Holding throughout (type): biochemical
Assay [1] has as its target c-Met (Homo sapiens, UniProt P08581). Description: c-Met Inhibition Assay, coupled enzyme system. As to conditions: enzyme inhibition data (Ki), Table 11. The essentials: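 Pyruvate kinase/lactate dehydrogenase-coupled NADH assay in HEPES pH 7.5 with 80 nM c-Met, 200 μM ATP and 10 μM polyGluTyr at 30° C. Compound (0.006–12.5 μM final, 12-point) preincubated 10 min before ATP start; rates over 10 min gave Ki.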

For assay [2], the target named is T1, JAK3 (Homo sapiens, UniProt P52333).
T1 sequence (P52333 1-1124): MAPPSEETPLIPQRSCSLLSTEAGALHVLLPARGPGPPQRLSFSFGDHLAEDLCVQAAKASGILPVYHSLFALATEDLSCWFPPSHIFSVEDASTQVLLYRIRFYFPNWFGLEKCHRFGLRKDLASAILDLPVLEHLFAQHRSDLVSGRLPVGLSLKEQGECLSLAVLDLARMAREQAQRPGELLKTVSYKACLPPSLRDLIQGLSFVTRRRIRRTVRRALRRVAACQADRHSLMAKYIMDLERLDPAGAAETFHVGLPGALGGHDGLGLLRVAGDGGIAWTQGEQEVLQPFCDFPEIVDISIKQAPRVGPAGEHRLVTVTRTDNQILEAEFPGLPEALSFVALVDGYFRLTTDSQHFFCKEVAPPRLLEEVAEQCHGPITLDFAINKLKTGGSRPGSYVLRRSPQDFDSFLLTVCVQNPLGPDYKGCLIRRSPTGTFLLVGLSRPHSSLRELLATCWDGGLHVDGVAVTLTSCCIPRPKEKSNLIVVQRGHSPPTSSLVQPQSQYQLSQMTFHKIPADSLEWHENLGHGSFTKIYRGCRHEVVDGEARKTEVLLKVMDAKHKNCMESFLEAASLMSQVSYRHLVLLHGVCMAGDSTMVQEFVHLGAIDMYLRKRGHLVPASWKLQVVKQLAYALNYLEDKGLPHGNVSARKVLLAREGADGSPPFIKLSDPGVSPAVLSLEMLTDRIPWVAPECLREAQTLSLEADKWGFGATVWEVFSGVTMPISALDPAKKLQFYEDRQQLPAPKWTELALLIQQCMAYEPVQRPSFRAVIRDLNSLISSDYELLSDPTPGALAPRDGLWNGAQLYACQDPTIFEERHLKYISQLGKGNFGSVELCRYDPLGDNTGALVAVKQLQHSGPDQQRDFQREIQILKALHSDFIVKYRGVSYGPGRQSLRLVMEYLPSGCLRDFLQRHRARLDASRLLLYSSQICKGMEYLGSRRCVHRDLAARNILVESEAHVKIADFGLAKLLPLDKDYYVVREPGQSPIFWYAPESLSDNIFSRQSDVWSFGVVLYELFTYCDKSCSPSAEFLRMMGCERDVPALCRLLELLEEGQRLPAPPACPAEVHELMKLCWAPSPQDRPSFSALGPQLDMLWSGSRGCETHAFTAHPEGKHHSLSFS
The experiment in a line: JAK3 Inhibition Assay, 33P incorporation. Particulars: enzyme inhibition data (Ki), Table 11. The essentials:
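Recombinant JAK3 at 1 nM in HEPES pH 7.4 buffer with 10 mM MgCl2, 1 mM DTT and 0.01% BSA. Substrates were 5 μM ATP (200 uCi/μmole) and 1 μM poly(Glu)4Tyr, reacted 20 min at 25 °C. Stopped with TCA, and 33P incorporation counted on glass fiber filters.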

For assay [3], the target named is T2, Itk (Homo sapiens, UniProt Q08881).
T2 sequence (Q08881 1-620): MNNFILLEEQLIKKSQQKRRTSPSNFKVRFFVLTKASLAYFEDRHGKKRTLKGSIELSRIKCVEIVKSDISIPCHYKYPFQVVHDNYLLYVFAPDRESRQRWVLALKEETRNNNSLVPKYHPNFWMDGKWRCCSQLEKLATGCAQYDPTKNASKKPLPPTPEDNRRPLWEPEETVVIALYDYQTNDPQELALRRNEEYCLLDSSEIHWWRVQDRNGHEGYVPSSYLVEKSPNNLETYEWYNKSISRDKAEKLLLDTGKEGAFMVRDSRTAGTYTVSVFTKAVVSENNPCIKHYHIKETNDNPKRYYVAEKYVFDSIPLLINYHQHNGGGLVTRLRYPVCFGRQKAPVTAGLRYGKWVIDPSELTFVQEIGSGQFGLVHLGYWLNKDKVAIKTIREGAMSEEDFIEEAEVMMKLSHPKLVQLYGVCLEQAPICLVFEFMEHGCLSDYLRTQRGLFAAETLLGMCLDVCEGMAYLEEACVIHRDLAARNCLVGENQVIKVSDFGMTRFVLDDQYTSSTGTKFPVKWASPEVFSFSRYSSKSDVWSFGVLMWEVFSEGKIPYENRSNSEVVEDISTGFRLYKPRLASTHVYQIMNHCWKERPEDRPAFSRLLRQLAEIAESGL
The experiment in a line: ITK Inhibition Assay (Radiometric), radioactive-phosphate incorporation. Particulars: enzyme inhibition data (Ki), Table 11; radiometric or UV assay not stated. The essentials:
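Radiometric 33P incorporation into SAM68 peptide (D332-443) with filter capture and scintillation counting; 10 min pre-incubation then 10 min reaction at 25° C. IC50 format: 30 nM Itk, 15 μM ATP, 2 μM peptide, HEPES pH 7.5. Ki(app) format: 50 nM Itk, 7.5 μM ATP, 3 μM peptide, MOPS pH 7.0.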

Chain of c-Met (P08581 25-1390): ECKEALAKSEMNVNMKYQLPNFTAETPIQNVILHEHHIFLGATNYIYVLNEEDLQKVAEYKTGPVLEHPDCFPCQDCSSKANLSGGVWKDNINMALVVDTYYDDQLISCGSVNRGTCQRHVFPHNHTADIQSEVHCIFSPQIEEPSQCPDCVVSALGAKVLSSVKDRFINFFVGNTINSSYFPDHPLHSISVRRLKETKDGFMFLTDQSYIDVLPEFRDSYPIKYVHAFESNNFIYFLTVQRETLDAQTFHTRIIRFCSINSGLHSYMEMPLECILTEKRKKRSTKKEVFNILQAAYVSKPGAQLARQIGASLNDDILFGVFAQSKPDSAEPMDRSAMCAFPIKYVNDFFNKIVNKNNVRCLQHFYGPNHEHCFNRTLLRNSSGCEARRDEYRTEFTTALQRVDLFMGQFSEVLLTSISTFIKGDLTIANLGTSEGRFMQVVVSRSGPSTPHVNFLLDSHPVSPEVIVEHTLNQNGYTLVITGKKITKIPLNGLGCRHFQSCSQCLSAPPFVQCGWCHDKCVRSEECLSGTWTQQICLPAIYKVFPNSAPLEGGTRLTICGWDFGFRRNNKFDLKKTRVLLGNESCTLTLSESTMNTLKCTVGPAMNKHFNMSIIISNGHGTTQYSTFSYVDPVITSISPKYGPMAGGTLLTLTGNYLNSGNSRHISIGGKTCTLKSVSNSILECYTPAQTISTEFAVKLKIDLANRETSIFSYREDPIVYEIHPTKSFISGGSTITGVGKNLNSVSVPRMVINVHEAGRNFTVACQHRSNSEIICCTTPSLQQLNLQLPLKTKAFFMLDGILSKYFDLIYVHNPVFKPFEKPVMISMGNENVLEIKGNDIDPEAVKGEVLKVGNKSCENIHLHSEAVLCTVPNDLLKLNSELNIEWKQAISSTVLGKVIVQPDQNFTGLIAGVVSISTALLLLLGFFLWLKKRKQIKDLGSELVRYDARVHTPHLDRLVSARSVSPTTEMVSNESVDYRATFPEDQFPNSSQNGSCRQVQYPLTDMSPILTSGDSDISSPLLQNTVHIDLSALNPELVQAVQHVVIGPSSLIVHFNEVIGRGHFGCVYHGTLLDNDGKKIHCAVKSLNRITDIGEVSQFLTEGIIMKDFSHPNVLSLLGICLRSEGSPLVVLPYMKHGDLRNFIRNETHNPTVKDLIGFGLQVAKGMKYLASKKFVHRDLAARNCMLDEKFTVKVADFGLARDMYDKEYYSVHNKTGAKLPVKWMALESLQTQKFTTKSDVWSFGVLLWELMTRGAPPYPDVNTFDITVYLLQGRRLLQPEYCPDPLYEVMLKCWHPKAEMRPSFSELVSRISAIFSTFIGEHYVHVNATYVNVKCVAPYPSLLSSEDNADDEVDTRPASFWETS

As a reminder, the pKi is −log10 of the Ki, conventionally taken in molar units. Turning to `Nc1nn2cc(C(=O)NCCc3ccccc3)cnc2c1-c1ccccn1` [Compound V-198], the pKi in assay [1] is 5.30 to 6.30; in assay [2] it was < 5.30; in assay [3], 5.30 to 6.30.
With `Nc1ccc(CNC(=O)c2cnc3c(-c4ccccn4)c(N)nn3c2)cc1` [Compound V-199], the pKi in assay [1] is 5.30 to 6.30; in assay [2], < 5.30; in assay [3] it was 5.30 to 6.30.
`Nc1nn2cc(C(=O)NCc3cccnc3)cnc2c1-c1ccccn1` [Compound V-200]: the negative-log Ki (pKi) is 5.30 to 6.30 in assay [1], < 5.30 in assay [2] and 5.30 to 6.30 in assay [3].
With `CC(C)(C)OC(=O)N1CCC(CNC(=O)c2cnc3c(-c4ccccn4)c(N)nn3c2)CC1` [Compound V-201], the negative logarithm of the Ki (pKi) in assay [1] is 5.30 to 6.30; in assay [2] it was < 5.30; in assay [3], 5.30 to 6.30.
Regarding `CC(C)CNC(=O)c1cnc2c(-c3ccccn3)c(N)nn2c1` [Compound V-205], the results for the pKi in assay [1], in assay [2] and in assay [3] were 5.30 to 6.30, < 5.30 and 5.30 to 6.30, respectively.
As for `Nc1nn2cc(C(=O)NCc3ccccc3)cnc2c1-c1ccccn1` [Compound V-207], the negative logarithm of the Ki (pKi) in assay [1] was 5.30 to 6.30; in assay [2], < 5.30; in assay [3], 5.30 to 6.30.
With `Nc1nn2cc(/C=C/c3ccccc3)cnc2c1-c1ccccn1` [Compound V-209], the values for the pKi in assay [1], in assay [2] and in assay [3] were 5.30 to 6.30, < 5.30 and > 6.30, respectively.
On the same counts, the results for `CN(C)CCN(C)C(=O)c1ccc(-c2cnc3c(Cc4ccccc4)c(N)nn3c2)nc1` [Compound V-211] are 5.30 to 6.30, < 5.30 and 5.30 to 6.30.
On the same counts, the results for `Nc1nn2cc(CCc3ccccc3)cnc2c1-c1ccccn1` [Compound V-213] are 5.30 to 6.30, < 5.30 and 5.30 to 6.30.
With `Nc1nn2cc(NC(=O)c3ccccc3)cnc2c1-c1ccccn1` [Compound V-235], the pKi in assay [1] was 5.30 to 6.30; in assay [2], < 5.30; in assay [3], 5.30 to 6.30.
Regarding `COc1ccc(-c2cnc3c([N+](=O)[O-])c(N)nn3c2)cc1` [Compound V-239], the pKi in assay [1] was 5.30 to 6.30; in assay [2], < 5.30; in assay [3], 5.30 to 6.30.
On to `COc1ccc(-c2cnc3c(N)c(N)nn3c2)cc1` [Compound V-240], for which the negative-log Ki (pKi) in assay [1] is 5.30 to 6.30; in assay [2] it was < 5.30; in assay [3] it was 5.30 to 6.30.
On to `COCCNc1cc(-c2cnc3c(-c4ccccn4)c(N)nn3c2)ccn1` [Compound V-245], for which the figures for the negative logarithm of the Ki (pKi) in assay [1], in assay [2] and in assay [3] were > 6.30, < 5.30 and 5.30 to 6.30, respectively.
`CN(C)CCNc1cc(-c2cnc3c(-c4ccccn4)c(N)nn3c2)ccn1` [Compound V-246]: the pKi was > 6.30 in assay [1], < 5.30 in assay [2] and 5.30 to 6.30 in assay [3].
On the same counts, the results for `Nc1nn2cc(-c3ccnc(N4CCN(Cc5ccccc5)CC4)c3)cnc2c1-c1ccccn1` [Compound V-247] are > 6.30, < 5.30 and 5.30 to 6.30.
For the molecule `Nc1nn2cc(-c3ccnc(N4CCN(CCO)CC4)c3)cnc2c1-c1ccccn1` [Compound V-248], the pKi in assay [1] is > 6.30; in assay [2], 5.30 to 6.30; in assay [3] it was 5.30 to 6.30.
In the case of `Nc1nn2cc(-c3ccnc(N4CCN(CCOCCO)CC4)c3)cnc2c1-c1ccccn1` [Compound V-249], the figures for the pKi in assay [1], in assay [2] and in assay [3] were > 6.30, 5.30 to 6.30 and 5.30 to 6.30, respectively.
`Nc1nn2cc(-c3ccnc(NCCCC4=NCC=N4)c3)cnc2c1-c1ccccn1` [Compound V-250]: the negative logarithm of the Ki (pKi) was > 6.30 in assay [1], 5.30 to 6.30 in assay [2] and > 6.30 in assay [3].
For the molecule `Nc1nn2cc(-c3ccnc(N4CCC[C@@H]4CO)c3)cnc2c1-c1ccccn1` [Compound V-251], the pKi was > 6.30 in assay [1], < 5.30 in assay [2] and 5.30 to 6.30 in assay [3].
Take `CN(Cc1cccnc1)c1cc(-c2cnc3c(-c4ccccn4)c(N)nn3c2)ccn1` [Compound V-252]: the negative-log Ki (pKi) in assay [1] was 5.30 to 6.30; in assay [2], < 5.30; in assay [3], 5.30 to 6.30.
For `CCOC(=O)C1CCN(c2cc(-c3cnc4c(-c5ccccn5)c(N)nn4c3)ccn2)CC1` [Compound V-253], the negative logarithm of the Ki (pKi) in assay [1] was 5.30 to 6.30; in assay [2], < 5.30; in assay [3], 5.30 to 6.30.
For `CN1CCCN(c2cc(-c3cnc4c(-c5ccccn5)c(N)nn4c3)ccn2)CC1` [Compound V-254], the pKi in assay [1] was 5.30 to 6.30; in assay [2] it was < 5.30; in assay [3] it was 5.30 to 6.30.
`Nc1nn2cc(-c3ccnc(N4CCN(c5cnccn5)CC4)c3)cnc2c1-c1ccccn1` [Compound V-255]: the negative-log Ki (pKi) was 5.30 to 6.30 in assay [1], < 5.30 in assay [2] and 5.30 to 6.30 in assay [3].
On to `Nc1nn2cc(-c3ccnc(N4CCC(N5CCCC5)CC4)c3)cnc2c1-c1ccccn1` [Compound V-256], for which the pKi in assay [1] was 5.30 to 6.30; in assay [2], < 5.30; in assay [3], 5.30 to 6.30.
Consider `Nc1nn2cc(-c3cccnc3N3CCOCC3)cnc2c1-c1ccccn1` [Compound V-257], for which the pKi was 5.30 to 6.30 in assay [1], < 5.30 in assay [2] and 5.30 to 6.30 in assay [3].
As to `Nc1nn2cc(-c3cccnc3N3CCCC3)cnc2c1-c1ccccn1` [Compound V-258], the negative-log Ki (pKi) in assay [1] is 5.30 to 6.30; in assay [2] it was < 5.30; in assay [3] it was 5.30 to 6.30.
With `Nc1nn2cc(-c3cccnc3N3CCCCC3)cnc2c1-c1ccccn1` [Compound V-259], the pKi in assay [1] is 5.30 to 6.30; in assay [2], < 5.30; in assay [3], 5.30 to 6.30.
Consider `COC(=O)C1CCN(c2ncccc2-c2cnc3c(-c4ccccn4)c(N)nn3c2)CC1` [Compound V-260], for which the figures for the pKi in assay [1], in assay [2] and in assay [3] were 5.30 to 6.30, < 5.30 and 5.30 to 6.30, respectively.
With `Nc1nn2cc(-c3cccnc3N3CC[C@H](CN4CCCC4)C3)cnc2c1-c1ccccn1` [Compound V-261], the pKi in assay [1] was 5.30 to 6.30; in assay [2] it was < 5.30; in assay [3], 5.30 to 6.30.
On to `Nc1nn2cc(-c3cccnc3N3CCC[C@H]3CO)cnc2c1-c1ccccn1` [Compound V-262], for which the results for the pKi in assay [1], in assay [2] and in assay [3] were 5.30 to 6.30, < 5.30 and 5.30 to 6.30, respectively.
In the case of `CCN(Cc1ccccn1)c1ncccc1-c1cnc2c(-c3ccccn3)c(N)nn2c1` [Compound V-263], the negative-log Ki (pKi) in assay [1] is 5.30 to 6.30; in assay [2] it was < 5.30; in assay [3], 5.30 to 6.30.
Take `Nc1nn2cc(-c3cccnc3N3CCN(Cc4ccncc4)CC3)cnc2c1-c1ccccn1` [Compound V-264]: the negative-log Ki (pKi) was 5.30 to 6.30 in assay [1], < 5.30 in assay [2] and 5.30 to 6.30 in assay [3].

The values are drawn from US7528138B2, “Pyrazolo[1,5-a]pyrimidines useful as inhibitors of protein kinases” (Vertex Pharmaceuticals Incorporated, priority 2004, dated 2009).
